Measurements reported in patent US4550186A, “Binuclear copper (II) carboxylates formed from amine-carboxyboranes” (Duke University, priority 1983, dated 1985).

What was measured:
Acetyl CoA Carboxylase = biological target: T1, Acetyl CoA Carboxylase (Mus musculus, UniProt Q5SWU9); assay: In vivo liver enzyme study: acetyl CoA carboxylase; conditions: CF1 liver after 16 days i.p.
T1 construct: 10% homogenates of CF1 male mouse liver; from tissue; host or cells: CF1 male mouse liver, 10% homogenate
Description: (§1) In vitro enzymatic studies were determined using 10% homogenates of CF1 male mouse liver with 50-200 μM of test drugs. In vivo enzymatic studies were determined using 10% homogenates of liver from CF1 male mice obtained after administering the agents for 16 days at a dose ranging from 2.5-20 mg/kg/day intraperitoneally. The liver homogenates for both in vitro and in vivo studies were prepared in 0.25M sucrose and 0.001M (ethylenedinitrilo)tetraacetic acid. Acetyl coenzyme A synthetase and adenosine triphosphate dependent citrate lyase activities were determined spectrophotometrically at 540 nm as the hydroxylamate of acetyl coenzyme A formed after 30 min at 37° C. Mitochondrial citrate exchange was determined by the procedure of Robinson et al [Eur. J. Biochem., 216, 63 (1970)] using ^14 C-sodium bicarbonate (41 mCi/mmol) incorporated into mitochondrial ^14 C-citrate after isolating rat mitochondria (9000 g×10 min) from the homogenates. The exchanges of the ^14 C-citrate were determined after incubating the mitochondrial fraction which was loaded with labeled citrate and test drugs for 10 min. Then the radioactivity was measured in the mitochondrial and supernantant fractions in scintillation fluid and expressed as a percentage. Cholesterol side chain oxidation was determined by the method of Kritchevsky and Tepper [Artherosclerosis, 18, 93 (1973)] using (26-^14 C) cholesterol (50 mCi/mmol) and mitochondria isolated from rat liver homogenates. […] Fatty acid synthetase activity was determined by the method of Brady et al [J. Biol. Chem., 235, 3093 (1960)] using [2-^14 C] malonyl-coenzyme A (37.5 mCi/mmol) which was incorporated into newly synthesized fatty acids that were extracted with ether and counted. Acyl transferase activity was determined with glycerol-3phosphate [L-2-^3 H(N)] […] HCl and counted. Phosphatidate phosphohydrolase activity was measured as the inorganic phosphate released after 30 min from phosphatidic acid by the method of Mavis et al [J. Lipid Res., 19, 467 (1978)]. […]

Fatty Acid Synthetase = biological target: T2, Fatty Acid Synthetase (Mus musculus, UniProt P19096); assay: In vivo liver enzyme study: fatty acid synthetase; conditions: CF1 liver after 16 days i.p.
T2 construct: 10% homogenates of CF1 male mouse liver; from tissue; host or cells: CF1 male mouse liver, 10% homogenate
Description: as §1

[1] = biological target: T3, carbamyl phosphate synthetase (Mus musculus, UniProt B2RQC6); assay: In vivo carbamyl phosphate synthetase activity
T3 construct: CPSase II domain of CAD; ornithine transcarbamylase used as coupling enzyme
Description: CF1 male mice (~30 g) were implanted with 2×10^6 Ehrlich ascites tumor cells, intraperitoneally on Day 0. Compound I was suspended by homogenation in 0.05% polysorbate.80-water and administered intraperitoneally at 10 and 20 mg/kg for 9 days to determine its effectiveness for inhibition of tumor growth. Mice were sacrificed on Day 10, and the ascites fluid was collected from the peritoneal cavity. The volume and ascrit (packed cell volume) were determined for each animal and the percent inhibition of tumor growth was calculated. For the metabolic studies, mice were treated on Days 8 and 9 with 10 mg/kg of Compound I, intraperitoneally. […]
Carbamyl phosphate synthetase activity was determined using the reaction medium of Kalman et al [Am. […] Citrulline formed from ornithine was measured at 490 nm by the method of Archibald [J. Biol. Chem., 156, 121 (1944)]. […] The ^14 CO2 generated in 15 min was trapped in 1M KOH and counted. Thymidylate synthetase activity was determined using a post-mitochondrial supernatant (9000 g×10 min) and 5 μCi of 5-^3 H-deoxyuridine monophosphate (14 Ci/mmol) according to the method of Kampf et al [ J. Med. Chem., 19, 903 (1976)]. ^14 C-Formate incorporation into purines was determined by the method of Spassova et al [Biochem. Pharmacol., 25, 923 (1976)] using 0.5 μCi of ^14 C-formic acid (52.0 mCi/mmol). […] The Rf value for xanthine monophosphate was scraped and counted. […]

T2 sequence (P19096 whole entry): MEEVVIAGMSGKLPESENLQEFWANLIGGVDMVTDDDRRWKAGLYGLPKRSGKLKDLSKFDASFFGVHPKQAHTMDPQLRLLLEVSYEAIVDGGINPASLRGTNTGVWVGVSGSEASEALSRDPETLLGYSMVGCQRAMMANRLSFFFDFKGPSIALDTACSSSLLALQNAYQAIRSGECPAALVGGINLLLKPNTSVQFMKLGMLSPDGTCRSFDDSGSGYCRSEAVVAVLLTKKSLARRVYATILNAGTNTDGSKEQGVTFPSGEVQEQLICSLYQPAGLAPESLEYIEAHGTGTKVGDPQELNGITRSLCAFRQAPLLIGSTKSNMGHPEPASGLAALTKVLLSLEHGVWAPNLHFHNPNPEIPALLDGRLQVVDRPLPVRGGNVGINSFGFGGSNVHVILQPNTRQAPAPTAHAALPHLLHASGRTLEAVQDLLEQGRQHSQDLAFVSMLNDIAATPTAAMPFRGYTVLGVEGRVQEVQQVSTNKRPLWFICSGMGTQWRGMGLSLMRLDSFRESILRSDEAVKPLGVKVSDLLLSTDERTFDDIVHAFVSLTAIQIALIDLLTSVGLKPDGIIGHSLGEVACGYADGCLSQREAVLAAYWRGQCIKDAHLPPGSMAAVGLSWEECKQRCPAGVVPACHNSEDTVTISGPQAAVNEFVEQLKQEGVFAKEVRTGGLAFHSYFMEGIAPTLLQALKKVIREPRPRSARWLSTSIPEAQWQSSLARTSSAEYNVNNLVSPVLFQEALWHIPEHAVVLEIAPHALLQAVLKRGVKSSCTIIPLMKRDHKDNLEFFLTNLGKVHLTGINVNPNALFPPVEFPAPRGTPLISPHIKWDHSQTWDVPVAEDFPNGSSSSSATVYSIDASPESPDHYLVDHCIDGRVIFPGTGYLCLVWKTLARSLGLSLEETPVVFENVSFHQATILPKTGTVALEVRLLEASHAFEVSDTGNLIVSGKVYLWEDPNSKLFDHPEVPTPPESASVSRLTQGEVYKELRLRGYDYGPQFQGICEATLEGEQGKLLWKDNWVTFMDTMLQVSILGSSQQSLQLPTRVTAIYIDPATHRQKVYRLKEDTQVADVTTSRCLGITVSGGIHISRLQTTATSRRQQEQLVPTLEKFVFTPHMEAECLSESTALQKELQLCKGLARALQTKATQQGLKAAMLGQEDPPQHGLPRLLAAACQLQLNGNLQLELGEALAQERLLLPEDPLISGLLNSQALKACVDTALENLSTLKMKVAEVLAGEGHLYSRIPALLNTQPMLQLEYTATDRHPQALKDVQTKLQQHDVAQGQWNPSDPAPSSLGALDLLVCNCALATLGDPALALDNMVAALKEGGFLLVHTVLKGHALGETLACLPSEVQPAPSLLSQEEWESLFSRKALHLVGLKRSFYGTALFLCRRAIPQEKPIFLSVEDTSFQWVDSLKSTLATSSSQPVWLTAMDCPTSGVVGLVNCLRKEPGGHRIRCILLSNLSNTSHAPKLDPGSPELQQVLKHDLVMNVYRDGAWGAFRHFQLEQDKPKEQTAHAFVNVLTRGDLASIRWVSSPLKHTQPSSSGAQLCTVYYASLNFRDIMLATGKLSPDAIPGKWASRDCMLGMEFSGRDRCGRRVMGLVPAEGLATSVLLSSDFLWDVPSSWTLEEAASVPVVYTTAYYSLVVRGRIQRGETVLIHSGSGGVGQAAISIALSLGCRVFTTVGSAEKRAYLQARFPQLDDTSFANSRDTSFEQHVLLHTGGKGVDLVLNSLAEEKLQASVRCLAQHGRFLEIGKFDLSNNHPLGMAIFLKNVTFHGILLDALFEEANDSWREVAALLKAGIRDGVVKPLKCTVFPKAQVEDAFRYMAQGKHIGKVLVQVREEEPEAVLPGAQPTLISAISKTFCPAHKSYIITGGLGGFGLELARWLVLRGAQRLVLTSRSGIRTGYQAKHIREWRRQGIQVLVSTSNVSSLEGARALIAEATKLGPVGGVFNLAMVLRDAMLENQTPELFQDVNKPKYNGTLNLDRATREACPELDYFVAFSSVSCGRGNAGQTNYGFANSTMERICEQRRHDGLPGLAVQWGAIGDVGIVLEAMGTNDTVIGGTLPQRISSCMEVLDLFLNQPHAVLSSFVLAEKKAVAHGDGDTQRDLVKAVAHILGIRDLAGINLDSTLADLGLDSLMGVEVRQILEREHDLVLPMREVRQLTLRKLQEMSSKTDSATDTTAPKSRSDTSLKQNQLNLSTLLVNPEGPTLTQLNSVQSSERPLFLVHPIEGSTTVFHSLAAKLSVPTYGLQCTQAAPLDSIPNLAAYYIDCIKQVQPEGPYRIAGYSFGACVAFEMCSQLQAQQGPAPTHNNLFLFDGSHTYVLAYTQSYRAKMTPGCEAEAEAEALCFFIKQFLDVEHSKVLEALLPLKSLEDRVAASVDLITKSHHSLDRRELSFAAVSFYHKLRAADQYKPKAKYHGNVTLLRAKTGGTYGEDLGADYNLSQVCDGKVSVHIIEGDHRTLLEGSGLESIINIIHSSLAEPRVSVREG
T3 sequence (B2RQC6 2-2225): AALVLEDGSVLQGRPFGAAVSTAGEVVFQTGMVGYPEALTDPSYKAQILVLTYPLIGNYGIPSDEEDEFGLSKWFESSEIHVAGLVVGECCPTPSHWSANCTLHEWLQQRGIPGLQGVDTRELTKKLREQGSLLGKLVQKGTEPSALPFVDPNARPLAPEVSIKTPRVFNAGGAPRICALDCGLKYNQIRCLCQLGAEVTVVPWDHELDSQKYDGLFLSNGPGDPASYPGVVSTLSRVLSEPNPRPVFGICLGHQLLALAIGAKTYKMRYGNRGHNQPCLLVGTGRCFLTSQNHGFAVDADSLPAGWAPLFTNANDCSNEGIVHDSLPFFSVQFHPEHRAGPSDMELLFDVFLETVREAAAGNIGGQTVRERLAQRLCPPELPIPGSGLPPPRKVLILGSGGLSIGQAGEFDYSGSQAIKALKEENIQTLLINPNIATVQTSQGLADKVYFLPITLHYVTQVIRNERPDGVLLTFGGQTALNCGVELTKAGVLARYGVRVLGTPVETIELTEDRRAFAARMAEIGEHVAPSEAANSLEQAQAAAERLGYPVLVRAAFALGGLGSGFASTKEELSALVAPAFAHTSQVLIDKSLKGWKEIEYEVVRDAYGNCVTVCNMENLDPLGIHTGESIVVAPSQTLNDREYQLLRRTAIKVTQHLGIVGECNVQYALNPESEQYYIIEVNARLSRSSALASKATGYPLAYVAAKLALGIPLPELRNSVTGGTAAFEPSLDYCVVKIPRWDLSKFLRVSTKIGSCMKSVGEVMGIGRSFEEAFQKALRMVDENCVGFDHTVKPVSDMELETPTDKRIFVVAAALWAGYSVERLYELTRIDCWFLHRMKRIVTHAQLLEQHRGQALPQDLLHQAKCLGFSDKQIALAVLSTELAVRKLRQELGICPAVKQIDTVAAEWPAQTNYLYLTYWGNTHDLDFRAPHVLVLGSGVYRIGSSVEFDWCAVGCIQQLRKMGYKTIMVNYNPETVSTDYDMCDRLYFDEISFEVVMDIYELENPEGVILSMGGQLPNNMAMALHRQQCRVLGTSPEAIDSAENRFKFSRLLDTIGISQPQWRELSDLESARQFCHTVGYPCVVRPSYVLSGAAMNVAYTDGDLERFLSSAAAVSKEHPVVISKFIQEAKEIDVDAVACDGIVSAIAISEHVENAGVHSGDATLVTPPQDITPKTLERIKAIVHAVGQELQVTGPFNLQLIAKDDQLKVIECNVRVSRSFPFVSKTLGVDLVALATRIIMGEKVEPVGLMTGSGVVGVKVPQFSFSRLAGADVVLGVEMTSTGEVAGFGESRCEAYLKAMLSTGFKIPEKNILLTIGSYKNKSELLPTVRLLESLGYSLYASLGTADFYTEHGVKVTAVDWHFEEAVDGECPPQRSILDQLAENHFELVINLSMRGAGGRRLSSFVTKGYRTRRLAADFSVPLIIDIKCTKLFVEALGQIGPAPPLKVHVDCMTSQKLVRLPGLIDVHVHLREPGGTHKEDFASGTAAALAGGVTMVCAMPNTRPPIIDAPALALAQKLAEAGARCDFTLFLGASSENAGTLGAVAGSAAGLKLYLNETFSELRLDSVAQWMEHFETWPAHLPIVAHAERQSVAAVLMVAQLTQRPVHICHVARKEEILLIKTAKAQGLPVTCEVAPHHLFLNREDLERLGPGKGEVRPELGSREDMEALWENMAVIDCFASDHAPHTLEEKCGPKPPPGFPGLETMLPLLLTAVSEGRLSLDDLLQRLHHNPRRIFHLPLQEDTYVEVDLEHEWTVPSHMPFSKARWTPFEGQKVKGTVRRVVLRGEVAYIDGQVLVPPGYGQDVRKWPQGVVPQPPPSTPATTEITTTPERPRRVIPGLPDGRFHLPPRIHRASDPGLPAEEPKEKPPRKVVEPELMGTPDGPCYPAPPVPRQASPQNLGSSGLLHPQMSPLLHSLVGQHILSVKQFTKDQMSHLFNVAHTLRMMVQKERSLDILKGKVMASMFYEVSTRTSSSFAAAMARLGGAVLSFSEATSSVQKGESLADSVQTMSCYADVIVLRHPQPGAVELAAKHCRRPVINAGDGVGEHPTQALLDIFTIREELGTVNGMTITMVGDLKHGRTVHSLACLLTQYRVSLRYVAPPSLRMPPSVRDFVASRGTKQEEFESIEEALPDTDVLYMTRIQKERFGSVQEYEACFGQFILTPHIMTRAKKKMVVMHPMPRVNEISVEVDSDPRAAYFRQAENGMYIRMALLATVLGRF

With “{Cu[(CH3)3 N.BH2 CO2 ]2.(CH3)3 N.BH2 COOH} [Compound I]” the “Acetyl CoA Carboxylase” value (Acetyl CoA Carboxylase; 2.5 mg/kg) was 103 ± 6% of control, the “Acetyl CoA Carboxylase” value (Acetyl CoA Carboxylase; 5.0 mg/kg) was 95% of control and the “Acetyl CoA Carboxylase” value (Acetyl CoA Carboxylase; 10 mg/kg) was 120 ± 7% of control. For the same substance, the “Fatty Acid Synthetase” value (Fatty Acid Synthetase; 2.5 mg/kg) was 102 ± 7% of control, the “Fatty Acid Synthetase” value (Fatty Acid Synthetase; 5.0 mg/kg) was 90 ± 6% of control and the “Fatty Acid Synthetase” value (Fatty Acid Synthetase; 10 mg/kg) was 94 ± 5% of control. For the same substance, the “Carbamyl phosphate synthetase activity reduced” value [1] was 23% and the “Carbamyl phosphate synthetase activity” value ([1]; 10 mg/kg/day I.P. on Days 8 and 9) was 77 ± 8 % Control.
